Data on ten compounds can be found in ChEMBL document CHEMBL1201862, “PubChem BioAssay data set” (2004).

Among the test systems are MDA-MB-231; K562; A549; SW-620; SK-MEL-28; RXF 393; SF-539; A498; SF-268; MDA-MB-435; MCF7; SR; MOLT-4; RPMI-8226; SK-MEL-5; T47D; UACC-257; HOP-62; HT-29; LOX IMVI.
What all share (test): NCI tumour cell line growth inhibition, 48 h

Molecules are shown by their SMILES.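 Grown in 96-well plates, cells were treated for 48 hours with each compound at five concentrations. Insufficient inhibition: endpoint recorded as highest concentration tested. GI50 marks 50% less growth.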 Active and inactive are the calls of the source. Cut-off read from the data, not from the text of the source: active = GI50 up to about 1.1 µM and inactive = higher.

Turning to `CC(C)=CCC1=C(OCC(=O)O)C(=O)c2ccccc2C1=O`, the GI50 was 49.8 µM (inactive) in the assay with MDA-MB-231; 33 µM (inactive) in the assay with K562; 30.8 µM (inactive) in the assay on A549; 23 µM (inactive) in the assay on SW-620; 35 µM (inactive) in the assay on SK-MEL-28; 31.9 µM (inactive) in the assay with RXF 393. The GI50 in the assay on SF-539 was 27.2 µM (inactive); with A498 it was 76.7 µM (inactive); in the assay on SF-268, 22.3 µM (inactive); in the assay with MDA-MB-435, 15.5 µM (inactive); in the assay with MCF7, 25.1 µM (inactive); in the assay on SR, 34.3 µM (inactive). In addition, the GI50 in the assay on MOLT-4 was 15.9 µM (inactive); in the assay with RPMI-8226, 24.1 µM (inactive); in the assay on SK-MEL-5, 19.5 µM (inactive); in the assay on T47D, 31.5 µM (inactive); in the assay on UACC-257, 29.1 µM (inactive); in the assay with HOP-62, 40.9 µM (inactive). Moreover, the values for the GI50 in the assay on HT-29 and with LOX IMVI were 47.2 µM (inactive) and 32.6 µM (inactive), respectively.
As for `CSC1=NN(C(C)=O)C(C(OC(C)=O)C(OC(C)=O)C(OC(C)=O)C(COC(C)=O)OC(C)=O)S1` (stereo not given), the GI50 in the assay on MDA-MB-231, in the assay with K562, in the assay on A549, with SW-620, in the assay on SK-MEL-28 and in the assay with RXF 393 was > 100 µM (inactive) in each case. Further, the GI50 with SF-539, with A498, in the assay with SF-268, with MDA-MB-435, with MCF7 and in the assay on SR was > 100 µM (inactive) throughout. Also, the GI50 with MOLT-4, in the assay with RPMI-8226, with SK-MEL-5, with T47D, in the assay with UACC-257 and with HOP-62 was > 100 µM (inactive) each time. For the same compound, the GI50 in the assay with HT-29 and in the assay on LOX IMVI was > 100 µM (inactive) throughout.
In the case of `CC(C)(C)c1cc(C(=O)/C=C/c2c(Cl)cccc2Cl)cc(C(C)(C)C)c1O`, the GI50 in the assay with MDA-MB-231 was 10.9 µM (inactive); with K562, 18.9 µM (inactive); with A549, 18.8 µM (inactive); with SW-620 it was 13.3 µM (inactive); in the assay with SK-MEL-28, 19.4 µM (inactive); with RXF 393, 2.05 µM (inactive). Further, the GI50 in the assay on SF-539 was 16.1 µM (inactive); in the assay on A498, 27.2 µM (inactive); in the assay with SF-268, 18.8 µM (inactive); with MDA-MB-435, 15.5 µM (inactive); in the assay on MCF7, 8.34 µM (inactive); with SR, 3.86 µM (inactive). The GI50 in the assay with MOLT-4 is 6.85 µM (inactive); with RPMI-8226, 3.8 µM (inactive); in the assay with SK-MEL-5, 11.4 µM (inactive); in the assay on T47D it was 4.33 µM (inactive); in the assay on UACC-257 it was 5.6 µM (inactive); with HOP-62 it was 20 µM (inactive). In addition, the results for the GI50 in the assay on HT-29 and in the assay on LOX IMVI were 10.2 µM (inactive) and 13.6 µM (inactive), respectively.
As for `O=C(/C=C/c1ccccc1O)CC(=O)/C=C/c1ccccc1O`, the GI50 with MDA-MB-231 was > 10 µM (inactive); in the assay on K562 it was 3.82 µM (inactive); in the assay with A549 it was 7.14 µM (inactive); in the assay with SW-620, 4.51 µM (inactive); in the assay on SK-MEL-28, 12.8 µM (inactive); in the assay on RXF 393 it was 3.25 µM (inactive). For the same compound, the GI50 with SF-539 was 5.9 µM (inactive); with A498, 23.3 µM (inactive); with SF-268 it was > 10 µM (inactive); in the assay with MDA-MB-435 it was 4.38 µM (inactive); in the assay on MCF7, 4.14 µM (inactive); in the assay on SR it was 2.67 µM (inactive). The GI50 in the assay with MOLT-4 was 3.78 µM (inactive); in the assay on RPMI-8226, 2.93 µM (inactive); in the assay on SK-MEL-5, 5.32 µM (inactive); with T47D it was 5.45 µM (inactive); in the assay with UACC-257, 10.3 µM (inactive); in the assay with HOP-62 it was 11.8 µM (inactive). In addition, the GI50 in the assay with HT-29 is 1.84 µM (inactive); in the assay with LOX IMVI, 1.32 µM (inactive).
Turning to `NC(=O)c1nc[nH]c1/N=N/SCC(N)C(=O)O` (stereo not given), the GI50 in the assay with MDA-MB-231 was 6.04 µM (inactive); with K562, 2.01 µM (inactive); with A549, > 100 µM (inactive); in the assay on SW-620 it was 16.4 µM (inactive); in the assay with SK-MEL-28, > 100 µM (inactive); with RXF 393 it was > 100 µM (inactive). Moreover, the GI50 in the assay on SF-539 was 17.6 µM (inactive); in the assay with A498, > 100 µM (inactive); in the assay on SF-268, 10.7 µM (inactive); in the assay with MDA-MB-435, 33.1 µM (inactive); with MCF7 it was 97.7 µM (inactive); with SR, 0.773 µM (active). Moreover, the GI50 in the assay with MOLT-4 was 0.962 µM (active); with RPMI-8226, 6.24 µM (inactive); in the assay on SK-MEL-5, 57 µM (inactive); in the assay on T47D, > 60.5 µM (inactive); in the assay with UACC-257 it was 54.8 µM (inactive); in the assay on HOP-62 it was 28.7 µM (inactive). For the same compound, the GI50 was > 100 µM (inactive) with HT-29 and 2.61 µM (inactive) with LOX IMVI.
Take `COc1nc2ncc([C@@H](OC(C)=O)[C@@H](COC(C)=O)OC(C)=O)nc2c(=O)n1C`: the GI50 in the assay with MDA-MB-231, in the assay with K562, in the assay with A549, in the assay on SW-620, with SK-MEL-28 and in the assay with RXF 393 was > 100 µM (inactive) each time. In addition, the GI50 in the assay on SF-539, in the assay on A498, in the assay on SF-268, with MDA-MB-435, with MCF7 and with SR was > 100 µM (inactive) each time. The GI50 in the assay with MOLT-4 is > 100 µM (inactive); in the assay with RPMI-8226 it was 96.8 µM (inactive); in the assay with SK-MEL-5, > 100 µM (inactive); with T47D it was > 100 µM (inactive); in the assay with UACC-257 it was > 100 µM (inactive); in the assay on HOP-62, > 100 µM (inactive). In addition, the GI50 in the assay on HT-29 and with LOX IMVI was > 100 µM (inactive) each time.
For `CO/C(=N\N=C\c1cccc(C(F)(F)F)c1)c1ccncc1`, the GI50 with MDA-MB-231 is 7.14 µM (inactive); in the assay with K562, 3.94 µM (inactive); in the assay on A549, 8.09 µM (inactive); in the assay with SW-620, 4.6 µM (inactive); in the assay on SK-MEL-28 it was 24.3 µM (inactive); in the assay on RXF 393 it was 6.64 µM (inactive). In addition, the GI50 with SF-539 is 4.67 µM (inactive); with A498, 9.91 µM (inactive); with SF-268, 8.05 µM (inactive); with MDA-MB-435, 2.32 µM (inactive); with MCF7, 2.52 µM (inactive); in the assay with SR, 5.75 µM (inactive). For the same compound, the GI50 with MOLT-4 is 5.21 µM (inactive); in the assay with RPMI-8226 it was 2.37 µM (inactive); in the assay with SK-MEL-5, 11.4 µM (inactive); in the assay with T47D it was 37.2 µM (inactive); with UACC-257, 14 µM (inactive); in the assay on HOP-62, 2.93 µM (inactive). For the same compound, the GI50 with HT-29 is 4.62 µM (inactive); with LOX IMVI, 7.76 µM (inactive).
In the case of `C[C@H](CCc1nc(C#N)c(N)o1)[C@H]1CC[C@H]2[C@@H]3CCC4C[C@@H](O)CC[C@]4(C)[C@H]3C[C@@H](O)[C@]12C` (stereo not given in full), the GI50 in the assay with MDA-MB-231 was 17.1 µM (inactive); in the assay on K562, 4.46 µM (inactive); with A549, 5.89 µM (inactive); in the assay with SW-620, 12.6 µM (inactive); with SK-MEL-28, 13.1 µM (inactive); in the assay with RXF 393 it was 9.27 µM (inactive). Besides, the GI50 in the assay on SF-539 is 10.2 µM (inactive); in the assay with A498, 18.7 µM (inactive); in the assay with SF-268 it was 11.3 µM (inactive); in the assay with MDA-MB-435, 15.1 µM (inactive); in the assay with MCF7 it was 14.6 µM (inactive); in the assay with SR, 3.05 µM (inactive). In addition, the GI50 with MOLT-4 is 4.02 µM (inactive); in the assay with RPMI-8226, 1.73 µM (inactive); with SK-MEL-5, 12.6 µM (inactive); in the assay with T47D it was 14.5 µM (inactive); in the assay on UACC-257, 7.73 µM (inactive); in the assay with HOP-62 it was 18.9 µM (inactive). Besides, the GI50 with HT-29 is 13.5 µM (inactive); in the assay on LOX IMVI, 7.71 µM (inactive).
Regarding `CCOP(=O)(O)C(Nc1ccc(/N=N/c2ccccc2)cc1)c1ccc(C(Nc2ccc(/N=N/c3ccccc3)cc2)P(=O)(O)OCC)cc1` (stereo not given), the GI50 is 30 µM (inactive) in the assay on MDA-MB-231; 19.6 µM (inactive) in the assay on K562; 29.7 µM (inactive) in the assay with A549; 16.7 µM (inactive) with SW-620; 19.2 µM (inactive) with SK-MEL-28; 25.2 µM (inactive) with RXF 393. Further, the GI50 in the assay on SF-539 was 19.2 µM (inactive); with A498, 32 µM (inactive); in the assay on SF-268 it was 20.4 µM (inactive); in the assay with MDA-MB-435, 17.4 µM (inactive); in the assay on MCF7, 48.3 µM (inactive); in the assay with SR, 19.8 µM (inactive). Besides, the GI50 is 20.3 µM (inactive) in the assay with MOLT-4; 23.7 µM (inactive) in the assay on RPMI-8226; 16.6 µM (inactive) in the assay with SK-MEL-5; 15.3 µM (inactive) in the assay with T47D; 26.4 µM (inactive) in the assay on UACC-257; 18.5 µM (inactive) in the assay on HOP-62. Further, the figures for the GI50 with HT-29 and in the assay on LOX IMVI were 18.3 µM (inactive) and 15.6 µM (inactive), respectively.
As to `CC(=O)Oc1cccc2c1C(=O)c1c(OC(C)=O)cc(C)cc1C2=O`, the GI50 with MDA-MB-231 is 43 µM (inactive); in the assay on K562, 29 µM (inactive); in the assay on A549, 47.5 µM (inactive); in the assay on SW-620 it was 37 µM (inactive); in the assay on SK-MEL-28 it was 27.9 µM (inactive); in the assay on RXF 393 it was 28.2 µM (inactive). Moreover, the GI50 in the assay on SF-539 is 26.3 µM (inactive); in the assay on A498 it was 37.8 µM (inactive); in the assay with SF-268, 62.8 µM (inactive); in the assay on MDA-MB-435, 43.4 µM (inactive); in the assay with MCF7 it was 46 µM (inactive); in the assay on SR it was 33 µM (inactive). In addition, the GI50 was 26.6 µM (inactive) in the assay on MOLT-4; 12.6 µM (inactive) with RPMI-8226; 29 µM (inactive) with SK-MEL-5; 32.4 µM (inactive) in the assay on T47D; > 100 µM (inactive) with UACC-257; 32.4 µM (inactive) with HOP-62. Besides, the GI50 is 39.6 µM (inactive) with HT-29 and 69 µM (inactive) with LOX IMVI.
